# Source: ChEMBL document CHEMBL5653631, “A Potent and Selective ULK1 Inhibitor Suppresses Autophagy and Sensitizes Cancer Cells to Nutrient Stress” (iScience, 2018)
# What was measured:
# [1] = biological target: T1, Dual specificity protein kinase TTK (Homo sapiens) (UniProt P33981); experiment: Inhibition of human recombinant TTK at 500 nM related to control ULK1
# T1 sequence (whole entry): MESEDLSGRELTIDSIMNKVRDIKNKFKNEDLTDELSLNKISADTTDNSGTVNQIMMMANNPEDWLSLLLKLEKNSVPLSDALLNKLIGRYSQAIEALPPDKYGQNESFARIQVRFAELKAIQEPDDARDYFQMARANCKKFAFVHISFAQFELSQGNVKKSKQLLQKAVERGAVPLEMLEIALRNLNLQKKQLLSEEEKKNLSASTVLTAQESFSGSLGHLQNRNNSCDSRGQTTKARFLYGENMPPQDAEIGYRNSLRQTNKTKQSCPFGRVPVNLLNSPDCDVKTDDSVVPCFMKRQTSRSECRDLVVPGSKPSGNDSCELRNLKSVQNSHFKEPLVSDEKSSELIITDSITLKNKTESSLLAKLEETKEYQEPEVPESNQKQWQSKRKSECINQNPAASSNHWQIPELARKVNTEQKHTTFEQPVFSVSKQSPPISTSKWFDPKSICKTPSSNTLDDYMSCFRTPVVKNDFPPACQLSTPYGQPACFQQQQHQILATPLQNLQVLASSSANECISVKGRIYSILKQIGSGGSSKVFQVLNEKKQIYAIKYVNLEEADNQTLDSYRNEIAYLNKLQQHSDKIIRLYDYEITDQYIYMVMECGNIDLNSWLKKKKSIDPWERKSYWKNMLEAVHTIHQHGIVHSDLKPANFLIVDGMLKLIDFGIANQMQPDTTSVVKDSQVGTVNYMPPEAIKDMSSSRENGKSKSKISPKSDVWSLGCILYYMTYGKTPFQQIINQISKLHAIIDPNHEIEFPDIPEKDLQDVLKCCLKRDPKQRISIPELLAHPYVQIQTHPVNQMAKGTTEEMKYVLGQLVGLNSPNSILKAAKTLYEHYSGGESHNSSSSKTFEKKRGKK
# [2] = biological target: T2, Serine/threonine-protein kinase ULK1 (Homo sapiens) (UniProt O75385); experiment: Inhibition of human recombinant ULK1 at 500 nM in presence of ATP by radiometric assay relative to control
# T2 sequence (whole entry): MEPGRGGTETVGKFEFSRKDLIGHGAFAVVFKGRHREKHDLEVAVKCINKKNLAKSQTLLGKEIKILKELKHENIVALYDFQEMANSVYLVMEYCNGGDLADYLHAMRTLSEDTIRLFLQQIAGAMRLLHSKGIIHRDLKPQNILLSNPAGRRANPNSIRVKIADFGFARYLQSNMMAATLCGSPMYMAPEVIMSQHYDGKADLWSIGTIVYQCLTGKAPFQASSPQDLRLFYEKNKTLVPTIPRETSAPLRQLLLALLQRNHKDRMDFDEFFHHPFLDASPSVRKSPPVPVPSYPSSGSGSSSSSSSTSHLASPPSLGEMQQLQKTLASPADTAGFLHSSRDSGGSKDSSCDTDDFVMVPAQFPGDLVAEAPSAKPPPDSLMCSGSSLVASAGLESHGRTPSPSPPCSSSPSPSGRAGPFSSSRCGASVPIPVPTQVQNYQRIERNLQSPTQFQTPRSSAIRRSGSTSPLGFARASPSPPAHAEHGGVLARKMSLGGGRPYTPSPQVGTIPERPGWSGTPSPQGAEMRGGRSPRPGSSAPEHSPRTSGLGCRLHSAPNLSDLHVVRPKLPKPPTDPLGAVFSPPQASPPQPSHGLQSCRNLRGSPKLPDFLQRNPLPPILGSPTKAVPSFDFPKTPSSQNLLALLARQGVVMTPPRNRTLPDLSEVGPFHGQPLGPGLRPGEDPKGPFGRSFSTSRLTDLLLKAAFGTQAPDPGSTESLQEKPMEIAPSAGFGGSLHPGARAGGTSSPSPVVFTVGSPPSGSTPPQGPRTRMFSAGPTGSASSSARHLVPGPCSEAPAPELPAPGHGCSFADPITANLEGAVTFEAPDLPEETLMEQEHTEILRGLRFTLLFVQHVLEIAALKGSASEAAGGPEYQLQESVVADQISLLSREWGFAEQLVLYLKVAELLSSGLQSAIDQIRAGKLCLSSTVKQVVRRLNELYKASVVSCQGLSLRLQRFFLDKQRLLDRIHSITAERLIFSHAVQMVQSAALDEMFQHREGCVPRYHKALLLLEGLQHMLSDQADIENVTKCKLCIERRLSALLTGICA
# [3] = biological target: T3, Serine/threonine-protein kinase 17B (Homo sapiens) (UniProt O94768); experiment: Inhibition of human recombinant DRAK2 at 40 nM related to control ULK1
# T3 sequence (whole entry): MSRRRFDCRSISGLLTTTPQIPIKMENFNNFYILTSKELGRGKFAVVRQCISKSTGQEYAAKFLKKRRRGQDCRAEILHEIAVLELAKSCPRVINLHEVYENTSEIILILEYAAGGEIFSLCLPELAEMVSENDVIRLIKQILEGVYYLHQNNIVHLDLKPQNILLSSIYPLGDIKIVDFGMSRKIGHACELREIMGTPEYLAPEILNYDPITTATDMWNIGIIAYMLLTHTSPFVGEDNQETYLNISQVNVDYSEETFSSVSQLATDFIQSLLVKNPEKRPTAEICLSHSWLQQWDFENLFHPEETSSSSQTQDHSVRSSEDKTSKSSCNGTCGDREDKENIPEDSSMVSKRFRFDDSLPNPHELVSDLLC
fold change (FC) [1],inhibition [2],fold change (FC) [3],Compound
0.15,74%,–,CNC(=O)c1ccccc1Oc1nc(Nc2cc(OC)c(OC)c(OC)c2)ncc1Br
–,–,0.53,O=C(N[C@@H](C1CC1)C(F)(F)F)c1cc(-c2cnn3cc(-c4ccc(F)cc4)cnc23)cs1
